Results published in patent US5807535A, “Metal complexes of hydroxyaryl containing aminocarboxylic acid chelating agents” (Australian Nuclear Science & Technology Organisation, priority 1992, dated 1998).

How the values were obtained:
[1] = Serum stability of 99mTc complex of (1); assay type: in vitro ADME; conditions: first hour at 37° C., read-out: technetium lost from the chelator in serum
Experimental: (§1) A typical method of radiolabelling of the chelator was achieved by dissolving the chelator in a basic solution of saline. The pH was then adjusted to approx. 6 with HCl. Excess stannous chloride was added to the resultant solution followed by one equivalent volume of sodium ^99m TcO4 (10-50 mCi/ml). Final concentration of the chelator was approx. 1 mg/ml. The efficacy of labelling was determined by ITLC-SG. For each product only one main radiochemical species was observed. Each complex was diluted to 15 μCi/100 μl with saline. […] (See FIGS. 1A and 1B).

[2] = Serum stability of Copper-67 complexes; assay type: in vitro ADME
Experimental: The serum stability was determined for selected derivatives and typical procedure is as follows.
The ligand (1) was labelled with Cu-67 at a ligand:metal ratio of 4:1.

[3] = Radiolabelling of chelators with 64Cu and 67Cu; assay type: physicochemical; conditions: ligand:metal ratio 4:1, ITLC
Experimental: A typical procedure involved the dissolving Cu-67 20 μl of original stock in an acetate buffer (0.2 M; pH 4.5) to a total volume of 500 μl. To this solution was added 500 μl of the ligand (20 mg/ml) solution in acetate buffer. The mixture was then left to react at 37° C. for 20 minutes. ITLC confirmed the labelling was greater than >95%.

[4] = Biodistribution of 99mTc complexes in mice; assay type: in vivo, Balb/c mice
Excerpt: A series of derivatives incorporating carboxyl and phenolate donor groups (1-6) were synthesised by literature method and their radiolabelling characteristic and biological behaviour evaluated. Initial work involved an investigation of radiochemical properties of the ^99m Tc complexes of the ligands and their biodistribution in rats and mice (see Tables 1-6 and 8-12).
as §1

[5] = Serum stability of 166Dy/166Ho complex of (1); assay type: in vitro ADME; conditions: human serum, 37° C.
Experimental: The radiolabelling (1) is then incubated in human serum at 37° C. At various time intervals the aliquots are separated and monitored for UV absorbance and radioactivity. The data illustrated in FIG. 31 show the complex is stable for >46 hrs.

O=C(O)CN(CCN(CC(=O)O)CC(=O)Nc1ccccc1O)CC(=O)Nc1ccccc1O [Compound 1]
degraded at 1 h [1]: ≤ 15%
further loss in serum ([2]; Cu-67, after 24 hours): no further loss
degraded at 4 h ([2]; serum, Cu-67, initial 4 hours, read-out: loss in serum): 4%
efficiency of labelling with Cu-67 [3]: > 95%
biodistribution GIT ([4]; 1 min): 3.82 % Injected dose
biodistribution bladder ([4]; 1 min): 0.12 % Injected dose
biodistribution blood ([4]; 1 min): 27.09 % Injected dose
biodistribution bone ([4]; 1 min): 5.34 % Injected dose
biodistribution heart ([4]; 1 min): 0.57 % Injected dose
biodistribution kidney ([4]; 1 min): 11.78 % Injected dose
biodistribution liver ([4]; 1 min): 12.07 % Injected dose
biodistribution lungs ([4]; 1 min): 1.54 % Injected dose
biodistribution muscle ([4]; 1 min): 23.48 % Injected dose
biodistribution skin ([4]; 1 min): 19.66 % Injected dose
biodistribution spleen ([4]; 1 min): 0.17 % Injected dose
biodistribution stomach ([4]; 1 min): 0.5 % Injected dose
biodistribution tail ([4]; 1 min): 2.42 % Injected dose
biodistribution urine ([4]; 1 min): 0 % Injected dose
biodistribution GIT ([4]; 3 min): 6.06 % Injected dose
biodistribution bladder ([4]; 3 min): 0.63 % Injected dose
biodistribution blood ([4]; 3 min): 12.02 % Injected dose
biodistribution bone ([4]; 3 min): 3.1 % Injected dose
biodistribution heart ([4]; 3 min): 0.23 % Injected dose
biodistribution kidney ([4]; 3 min): 11.23 % Injected dose
biodistribution liver ([4]; 3 min): 12.83 % Injected dose
biodistribution lungs ([4]; 3 min): 0.98 % Injected dose
biodistribution muscle ([4]; 3 min): 13.18 % Injected dose
biodistribution skin ([4]; 3 min): 19.28 % Injected dose
biodistribution spleen ([4]; 3 min): 0.1 % Injected dose
biodistribution stomach ([4]; 3 min): 0.98 % Injected dose
biodistribution tail ([4]; 3 min): 1.58 % Injected dose
biodistribution urine ([4]; 3 min): 5.62 % Injected dose
biodistribution GIT ([4]; 5 min): 4.77 % Injected dose
biodistribution bladder ([4]; 5 min): 0.68 % Injected dose
biodistribution blood ([4]; 5 min): 9.77 % Injected dose
biodistribution bone ([4]; 5 min): 2.88 % Injected dose
biodistribution heart ([4]; 5 min): 0.21 % Injected dose
biodistribution kidney ([4]; 5 min): 9.17 % Injected dose
biodistribution liver ([4]; 5 min): 11.82 % Injected dose
biodistribution lungs ([4]; 5 min): 0.77 % Injected dose
biodistribution muscle ([4]; 5 min): 9.81 % Injected dose
biodistribution skin ([4]; 5 min): 19.68 % Injected dose
biodistribution spleen ([4]; 5 min): 0.07 % Injected dose
biodistribution stomach ([4]; 5 min): 1.02 % Injected dose
biodistribution tail ([4]; 5 min): 3.76 % Injected dose
biodistribution urine ([4]; 5 min): 4.51 % Injected dose
biodistribution GIT ([4]; 10 min): 12.35 % Injected dose
biodistribution bladder ([4]; 10 min): 1.96 % Injected dose
biodistribution blood ([4]; 10 min): 5.34 % Injected dose
biodistribution bone ([4]; 10 min): 5.06 % Injected dose
biodistribution heart ([4]; 10 min): 0.12 % Injected dose
biodistribution kidney ([4]; 10 min): 5.58 % Injected dose
biodistribution liver ([4]; 10 min): 5.96 % Injected dose
biodistribution lungs ([4]; 10 min): 0.48 % Injected dose
biodistribution muscle ([4]; 10 min): 16.44 % Injected dose
biodistribution skin ([4]; 10 min): 15.68 % Injected dose
biodistribution spleen ([4]; 10 min): 0.06 % Injected dose
biodistribution stomach ([4]; 10 min): 1.16 % Injected dose
biodistribution tail ([4]; 10 min): 2.07 % Injected dose
biodistribution urine ([4]; 10 min): 11.64 % Injected dose
biodistribution GIT ([4]; 30 min): 20 % Injected dose
biodistribution bladder ([4]; 30 min): 1.23 % Injected dose
biodistribution blood ([4]; 30 min): 1.82 % Injected dose
biodistribution bone ([4]; 30 min): 1.12 % Injected dose
biodistribution heart ([4]; 30 min): 0.05 % Injected dose
biodistribution kidney ([4]; 30 min): 3.19 % Injected dose
biodistribution liver ([4]; 30 min): 3.09 % Injected dose
biodistribution lungs ([4]; 30 min): 0.2 % Injected dose
biodistribution muscle ([4]; 30 min): 4.98 % Injected dose
biodistribution skin ([4]; 30 min): 7.31 % Injected dose
biodistribution spleen ([4]; 30 min): 0.02 % Injected dose
biodistribution stomach ([4]; 30 min): 0.49 % Injected dose
biodistribution tail ([4]; 30 min): 1.53 % Injected dose
biodistribution urine ([4]; 30 min): 8.84 % Injected dose
serum stability (complex is stable for) [5]: > 46 h
